In US10195155B2, “Drug carrier for tumor-specific targeted drug delivery and use thereof” (Institute of Biophysics, Chinese Academy of Sciences, priority 2014, dated 2019):

Key:
[1] = Maximal tolerated dosage in healthy mice, single administration; conditions: HFn-Dox by Dox equivalent
Description: In the therapy of a cancer patient, the dosage of administration and the number of administration were very important. However, bound by toxic side effects of chemotherapeutic drugs, the therapy of cancer usually became administration in a small amount at a high frequency.

HT-29 implanted tumor = experiment: Anti-tumor pharmacodynamics in nude mice bearing HT-29 implanted tumor; conditions: single tail vein dose
Description: 40 female BALB/c nude mice bearing HT-29 implanted tumor were randomly divided into five groups. When the volume of the implanted tumor was up to about 100 square millimeters, drugs were injected to all of tumor-bearing mice through the tail vein. […] Since the maximal tolerated dosage of mice to free Doxorubicin was 5 mg/kg mouse body weight, the administration dosage of the free Doxorubicin group was 5 mg/kg mouse body weight. […] Measurements of body weights and tumors of mice were three times per week.

## COc1cccc2c1C(=O)c1c(O)c3c(c(O)c1C2=O)C[C@@](O)(C(=O)CO)C[C@@H]3O[C@H]1C[C@H](N)[C@H](O)[C@H](C)O1 [free Doxorubicin, Doxorubicin]
[1]
  maximal tolerated dosage: 5 mg/kg
HT-29 implanted tumor; free Dox 5 mg/kg, Doxil 20 mg/kg
  average survival time of tumor-bearing mice: 18 days
HT-29 implanted tumor; free Doxorubicin 5 mg/kg, HFn-Dox and Doxil 20 mg/kg, 40-day window
  tumor growth inhibition: almost no inhibitory effect
